According to ChEMBL document CHEMBL1138598, “Interactions of curcumin with the PfATP6 model and the implications for its antimalarial mechanism” (Bioorg Med Chem Lett, 2009):

Assays:
[1] = Binding affinity to Plasmodium falciparum ATPase6
[2] = Inhibition of Plasmodium falciparum ATPase6 expressed in Xenopus oocytes; format: cell-based; conditions: oocyte
Plasmodium falciparum = assay: Antimalarial activity against chloroquine-resistant Plasmodium falciparum FCK by [3H]hypoxanthine uptake; format: functional, organism-based

COc1cc(/C=C/C(=O)CC(=O)/C=C/c2ccc(O)c(OC)c2)ccc1O (stereo in doubt; form 1) [CURCUMIN]
Kd [1]: 1150 nM

COc1cc(/C=C/C(=O)CC(=O)/C=C/c2ccc(O)c(OC)c2)ccc1O (stereo in doubt; form 2) [CURCUMIN]
Kd [1]: 2450 nM

C[C@@H]1CC[C@H]2[C@@H](C)C(=O)O[C@@H]3O[C@@]4(C)CC[C@@H]1[C@]32OO4 [ARTEMISININ]
Kd [2]: 150 nM | IC50 (Plasmodium falciparum): 0.045 µM

COc1cc(/C=C/C(=O)CC(=O)/C=C/c2ccc(O)c(OC)c2)ccc1O [CURCUMIN]
IC50 (Plasmodium falciparum): 15 µM
